# Laboratory results reported in the supplement of paper PMC10307832.
# Columns and labels:
# Assay in all cases: relative viability (nuclei count vs DMSO), 5 days (fraction); higher = more cells survive
# [1] = tested on: ChaGo-K-1
# Procedure, shortened: (§1)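 Values are medians from duplicate plates. Each reflects relative viability, defined as the nuclei count of treated wells over that of vehicle wells. Lung cancer cell lines in 1536-well plates were pin-tool dosed one day after seeding with one drug alone or with a fixed anchor-drug dose plus five library-drug doses (not always all listed) in √10 steps, then fixed, stained and imaged at 4× after 5 days.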
# [2] = tested on: EKVX
# Procedure, shortened: as §1
# [3] = tested on: EMC-BAC-2
# Procedure, shortened: as §1
# [4] = tested on: EPLC-272H
# Procedure, shortened: as §1
# [5] = tested on: HCC-78
# Procedure, shortened: as §1
# [6] = tested on: HCC-827
# Procedure, shortened: as §1
# [7] = tested on: LCLC-103H
# Procedure, shortened: as §1
# [8] = tested on: LK-2
# Procedure, shortened: as §1
# [9] = tested on: LU99A
# Procedure, shortened: as §1
# [10] = tested on: NCI-H1563
# Procedure, shortened: as §1
# [11] = tested on: NCI-H1666
# Procedure, shortened: as §1
smiles,measurement,setting,value
Cc1sc2c(c1C)C(c1ccc(Cl)cc1)=N[C@@H](CC(=O)OC(C)(C)C)c1nnc(C)n1-2 [JQ1] + COc1cccc2cc(-c3nc([C@H]4CC[C@H](C(=O)O)CC4)n4ncnc(N)c34)[nH]c12 [OSI-027] (partner 0.5 µM),relative viability,[1]; first compound 0.04 µM,0.564
same,relative viability,[1]; first compound 0.1265 µM,0.519
same,relative viability,[1]; first compound 0.4 µM,0.472
same,relative viability,[1]; first compound 1.265 µM,0.345
same,relative viability,[1]; first compound 4 µM,0.28
same,relative viability,[2]; first compound 0.04 µM,0.698
same,relative viability,[2]; first compound 0.1265 µM,0.587
same,relative viability,[2]; first compound 0.4 µM,0.722
same,relative viability,[2]; first compound 1.265 µM,0.571
same,relative viability,[2]; first compound 4 µM,0.488
same,relative viability,[3]; first compound 0.04 µM,0.405
same,relative viability,[3]; first compound 0.1265 µM,0.286
same,relative viability,[3]; first compound 0.4 µM,0.301
same,relative viability,[3]; first compound 1.265 µM,0.189
same,relative viability,[3]; first compound 4 µM,0.224
same,relative viability,[4]; first compound 0.04 µM,0.26
same,relative viability,[4]; first compound 0.1265 µM,0.336
same,relative viability,[4]; first compound 0.4 µM,0.275
same,relative viability,[4]; first compound 1.265 µM,0.237
same,relative viability,[4]; first compound 4 µM,0.248
same,relative viability,[5]; first compound 0.04 µM,0.389
same,relative viability,[5]; first compound 0.1265 µM,0.47
same,relative viability,[5]; first compound 0.4 µM,0.387
same,relative viability,[5]; first compound 1.265 µM,0.335
same,relative viability,[5]; first compound 4 µM,0.296
same,relative viability,[6]; first compound 0.04 µM,0.704
same,relative viability,[6]; first compound 0.4 µM,0.532
same,relative viability,[6]; first compound 1.265 µM,0.866
same,relative viability,[6]; first compound 4 µM,0.738
same,relative viability,[7]; first compound 0.04 µM,0.443
same,relative viability,[7]; first compound 0.1265 µM,0.448
same,relative viability,[7]; first compound 0.4 µM,0.367
same,relative viability,[7]; first compound 1.265 µM,0.357
same,relative viability,[7]; first compound 4 µM,0.29
same,relative viability,[8]; first compound 0.04 µM,0.204
same,relative viability,[8]; first compound 0.1265 µM,0.21
same,relative viability,[8]; first compound 0.4 µM,0.188
same,relative viability,[8]; first compound 1.265 µM,0.122
same,relative viability,[8]; first compound 4 µM,0.143
same,relative viability,[9]; first compound 0.04 µM,0.299
same,relative viability,[9]; first compound 0.1265 µM,0.268
same,relative viability,[9]; first compound 0.4 µM,0.316
same,relative viability,[9]; first compound 1.265 µM,0.234
same,relative viability,[9]; first compound 4 µM,0.209
same,relative viability,[10]; first compound 0.04 µM,0.735
same,relative viability,[10]; first compound 0.1265 µM,0.704
same,relative viability,[10]; first compound 0.4 µM,0.605
same,relative viability,[10]; first compound 1.265 µM,0.552
same,relative viability,[10]; first compound 4 µM,0.545
same,relative viability,[11]; first compound 0.04 µM,0.761
same,relative viability,[11]; first compound 0.1265 µM,0.901
same,relative viability,[11]; first compound 0.4 µM,0.726
same,relative viability,[11]; first compound 1.265 µM,0.581
same,relative viability,[11]; first compound 4 µM,0.789
